pEC50, pKi: −log10 of the molar value.
What was measured:
[1] = Terminal elimination half life in Sprague-Dawley rat at 12 mg/kg, po; type: ADME, organism-based; settings: in vivo, read-out: beta t1/2 (converted)
[2] = Effect on emotional-affective response in USV-induced Sprague-Dawley rat assessed as reduction in ultrasonic vocalization; type: functional; settings: read-out: MED
Mus musculus [3] = species on record: Mus musculus; assay: Antidepressant activity in Swiss albino mouse assessed as minimum effective dose by tail suspension test; type: functional; settings: read-out: MED
Mus musculus [4] = species on record: Mus musculus; assay: Antidepressant activity in USV-induced Swiss albino mouse model of depression assessed as minimum effective dose; type: functional; settings: read-out: MED
[5] = biological target: T1, 5-hydroxytryptamine receptor 2A (Homo sapiens, UniProt P28223); assay: Agonist activity at human 5HT2A receptor; type: functional
[6] = biological target: T1, 5-hydroxytryptamine receptor 2A; assay: Agonist activity at N-terminal HA-tagged human 5HT2A receptor at 1 uM relative to control; type: functional
[7] = biological target: T2, 5-hydroxytryptamine receptor 2C (Homo sapiens) (UniProt P28335); assay: Agonist activity at 5HT2C receptor (unknown origin) at 1 uM relative to control; type: functional; settings: filed as agonist
T2 sequence (whole entry): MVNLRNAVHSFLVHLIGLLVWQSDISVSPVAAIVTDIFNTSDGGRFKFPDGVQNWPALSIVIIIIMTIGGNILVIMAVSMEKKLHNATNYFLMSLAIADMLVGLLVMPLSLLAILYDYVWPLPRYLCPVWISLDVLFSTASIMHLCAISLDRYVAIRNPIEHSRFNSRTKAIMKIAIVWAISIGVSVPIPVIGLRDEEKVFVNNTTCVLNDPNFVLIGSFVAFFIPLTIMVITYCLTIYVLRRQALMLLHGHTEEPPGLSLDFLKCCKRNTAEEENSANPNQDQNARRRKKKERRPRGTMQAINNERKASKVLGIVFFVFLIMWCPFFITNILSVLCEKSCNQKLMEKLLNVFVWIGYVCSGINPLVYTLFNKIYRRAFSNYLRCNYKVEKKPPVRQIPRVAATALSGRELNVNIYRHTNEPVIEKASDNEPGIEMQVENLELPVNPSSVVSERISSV

[8] = biological target: T3, 5-hydroxytryptamine receptor 2C (Homo sapiens, UniProt P28335); assay: Agonist activity at 5HT2C receptor (unknown origin); type: functional
T3 sequence (P28335 whole entry): T2 sequence (whole entry)

[9] = biological target: T1, 5-hydroxytryptamine receptor 2A; assay: Agonist activity at N-terminal HA-tagged human 5HT2A receptor; type: functional
[10] = biological target: T4, 5-hydroxytryptamine receptor 2B (Homo sapiens, UniProt P41595); assay: Agonist activity at 5HT2B (unknown origin) at 1 uM relative to control; type: functional
[11] = biological target: T4, 5-hydroxytryptamine receptor 2B; assay: Agonist activity at 5HT2B (unknown origin); type: functional
[12] = biological target: T1, 5-hydroxytryptamine receptor 2A; assay: Agonist activity at 5HT2A receptor (unknown origin) at 10 uM relative to control; type: functional
[13] = biological target: T2, 5-hydroxytryptamine receptor 2C (Homo sapiens); assay: Agonist activity at 5HT2C receptor (unknown origin) at 10 uM relative to control; type: functional; settings: filed as agonist
[14] = Binding affinity to MT1 receptor (unknown origin) assessed as inhibition constant; set-up: species or system Homo sapiens
[15] = biological target: T5, Melatonin receptor type 1B (Homo sapiens, UniProt P49286); assay: Binding affinity to MT2 receptor (unknown origin) assessed as inhibition constant
T5 sequence (P49286 whole entry): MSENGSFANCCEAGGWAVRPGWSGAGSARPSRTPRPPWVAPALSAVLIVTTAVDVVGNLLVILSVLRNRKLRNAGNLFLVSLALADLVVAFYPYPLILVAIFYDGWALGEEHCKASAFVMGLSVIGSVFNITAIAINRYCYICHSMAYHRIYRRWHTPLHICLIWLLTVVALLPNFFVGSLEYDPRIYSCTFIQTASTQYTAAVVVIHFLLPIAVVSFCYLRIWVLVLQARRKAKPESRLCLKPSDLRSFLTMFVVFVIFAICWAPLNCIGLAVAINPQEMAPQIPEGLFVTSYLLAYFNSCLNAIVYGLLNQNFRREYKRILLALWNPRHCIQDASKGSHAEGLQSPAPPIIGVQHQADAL

[16] = biological target: Sigma non-opioid intracellular receptor 1 (Homo sapiens, UniProt Q99720); assay: Binding affinity to sigma1 receptor (unknown origin) assessed as inhibition constant
Homo sapiens = species on record: Homo sapiens; assay: Selectivity ratio of Ki for sigma 2 receptor (unknown origin) to Ki for sigma 1 receptor assessed as inhibition of constant
[17] = biological target: Sigma intracellular receptor 2 (Homo sapiens, UniProt Q5BJF2); assay: Binding affinity to sigma 2 receptor (unknown origin) assessed as inhibition constant
Sigma intracellular receptor 2, sequence (Q5BJF2 whole entry): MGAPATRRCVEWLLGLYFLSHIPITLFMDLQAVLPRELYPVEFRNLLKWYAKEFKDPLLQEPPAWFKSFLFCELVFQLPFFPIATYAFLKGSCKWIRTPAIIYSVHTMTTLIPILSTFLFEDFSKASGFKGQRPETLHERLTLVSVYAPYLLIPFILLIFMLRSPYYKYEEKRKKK

T1 sequence (P28223 whole entry): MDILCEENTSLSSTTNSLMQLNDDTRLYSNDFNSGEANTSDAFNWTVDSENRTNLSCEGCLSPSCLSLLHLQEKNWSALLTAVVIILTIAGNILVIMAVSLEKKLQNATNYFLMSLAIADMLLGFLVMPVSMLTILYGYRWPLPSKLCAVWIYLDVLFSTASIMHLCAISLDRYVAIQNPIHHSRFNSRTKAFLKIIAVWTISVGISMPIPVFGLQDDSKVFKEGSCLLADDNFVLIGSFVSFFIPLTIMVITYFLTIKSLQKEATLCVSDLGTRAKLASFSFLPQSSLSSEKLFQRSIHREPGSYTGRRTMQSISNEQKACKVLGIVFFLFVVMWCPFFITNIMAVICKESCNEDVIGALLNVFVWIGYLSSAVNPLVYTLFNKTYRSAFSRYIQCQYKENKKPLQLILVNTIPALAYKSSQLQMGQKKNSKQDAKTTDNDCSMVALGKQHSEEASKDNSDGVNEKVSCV
T4 sequence (P41595 whole entry): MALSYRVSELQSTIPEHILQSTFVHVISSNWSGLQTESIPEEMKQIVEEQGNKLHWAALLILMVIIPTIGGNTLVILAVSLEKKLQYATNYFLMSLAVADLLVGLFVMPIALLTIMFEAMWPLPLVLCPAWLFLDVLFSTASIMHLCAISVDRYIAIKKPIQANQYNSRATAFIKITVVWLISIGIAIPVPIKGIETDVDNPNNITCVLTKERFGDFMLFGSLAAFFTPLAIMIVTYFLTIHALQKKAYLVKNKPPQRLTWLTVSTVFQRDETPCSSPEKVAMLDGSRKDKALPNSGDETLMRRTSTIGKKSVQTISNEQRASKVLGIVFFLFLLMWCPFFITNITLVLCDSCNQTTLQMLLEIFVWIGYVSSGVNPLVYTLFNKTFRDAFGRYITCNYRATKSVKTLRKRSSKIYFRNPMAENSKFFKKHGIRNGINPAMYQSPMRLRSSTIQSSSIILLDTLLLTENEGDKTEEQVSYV
Sigma non-opioid intracellular receptor 1, sequence (Q99720 whole entry): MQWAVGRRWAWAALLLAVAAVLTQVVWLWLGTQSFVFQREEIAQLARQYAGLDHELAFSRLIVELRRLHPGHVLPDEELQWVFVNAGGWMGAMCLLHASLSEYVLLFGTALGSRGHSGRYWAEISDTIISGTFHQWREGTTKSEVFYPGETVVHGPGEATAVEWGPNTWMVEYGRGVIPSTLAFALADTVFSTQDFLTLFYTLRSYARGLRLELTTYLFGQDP

CCN(CC)C(=O)[C@@]1(c2ccccc2)C[C@H]1CN [LEVOMILNACIPRAN] showed a half-life [1] of 12 h, a minimal effective dose [2] of 5 mg/kg and a minimal effective dose (Mus musculus [3]) of 2.5 mg/kg. For the same molecule, the minimal effective dose (Mus musculus [4]) was 20 mg/kg.
Work on CC1(C)Cc2cc(Cl)cc([C@H]3C[C@H]3CN)c2O1 yielded a pEC50 [5] of 6.22.
With NC[C@@H]1C[C@@H]1c1cc(F)ccc1OCC1CC1 the Emax [6] was 29%, the Emax [7] was 71% and the pEC50 [8] was 7.68. It also gave a pEC50 [9] of 6.05, an Emax [10] of 21% and a pEC50 [11] of 6.54.
Molecule NC[C@@H]1C[C@@H]1c1cc(O)ccc1OCC1CC1 has an Emax [12] of 18%, an Emax [13] of 70% and a pEC50 [8] of 8.03. For the same molecule, the pEC50 [9] was 6.43.
For CCC(=O)NC[C@@H]1C[C@H]1c1cccc2c1CCO2 [TASIMELTEON], the pKi [14] was 9.52 and the pKi [15] was 10.15.
For COC(=O)[C@]1(c2ccccc2)C[C@@H]1CN1CCC(O)(c2ccc(Cl)cc2)CC1, the pKi [16] was 8.82, the Selectivity ratio (Homo sapiens) was 5.5 and the pKi [17] was 7.66.
